One compound from patent US12054509B2, “Antimicrobial compounds, compositions, and uses thereof” (Lakewood Amedex, Inc., priority 2017, dated 2024) can be followed below.

One experiment has as its system P. aeruginosa. Put plainly: MIC broth microdilution (CLSI) at incremental pH, P. aeruginosa. In kind it is cell-based. As to conditions: Pseudomonas aeruginosa. As to the method:
MIC testing is conducted using the broth (Mueller Hinton Broth) microdilution procedures relevant to each organism group as established by the Clinical and Laboratory Standards Institute (CLSI; 3-7). MIC plates are prepared in accordance with CLSI (3-7). To prepare the test plates, automated liquid handlers are used to conduct serial dilutions and liquid transfers. Automated liquid handlers utilized in this study include the Multidrop 384 (Labsystems, Helsinki, Finland) and the Biomek 2000 (Beckman Coulter, Fullerton CA). The solution is diluted to desired pH using 1 M Citric Acid or 1 M NaOH buffer. A standardized inoculum of each test organism is prepared per CLSI methods (3, 5-7) to equal a 0.5 McFarland standard in the appropriate media followed by an additional 1:20 dilution (1:10 for anaerobes).
The plates are then inoculated with 10 μL of the diluted 0.5 McFarland suspension using the Biomek 2000 from low to high drug concentration, resulting in a final concentration of approximately 5×10^5 CFU/mL per well. An un-inoculated plate is incubated for the purpose of assessing solubility of the drug in the test media. The plates are stacked 3 to 4 high, covered with a sterile lid on the top plate, and incubated for 18 to 24 hours according to CLSI. The MIC is recorded as the lowest concentration of respective compound that inhibited visible growth of the organism.
Background: In broth dilution the organism is exposed to a series of concentrations in liquid medium.

A further experiment relates to Citrobacter species. Briefly: MIC at pH 3.5 (CLSI, Mueller-Hinton broth). The class given is cell-based. As to conditions: 5 isolates. As to the method:
(§1) Bacterial strains evaluated in this study include Escherichia coli, Klebsiella spp, Serratia marcescens, Proteus mirabilis/vulgaris, Citrobacter spp, Providencia spp, Morganella morganii, Pseudomonas aeruginosa, Staphylococcus aureus (MRSA only), and Enterococcus faecalis. Nu-8 test solutions are adjusted to pH 3.5 with citric acid, and MIC is evaluated per the CLSI methods in Mueller-Hinton broth supplemented accordingly to facilitate growth of specific strains.

Another experiment deals with Enterococcus faecalis. Briefly: MIC at pH 3.5 (CLSI, Mueller-Hinton broth). In kind it is cell-based. The conditions noted are these: 5 isolates. As to the method:
as §1

The test system of the next experiment is Escherichia coli. Briefly: MIC at pH 3.5 (CLSI, Mueller-Hinton broth). As to conditions: 5 isolates. The class given is cell-based. As to the method:
as §1

The subject of another experiment is Klebsiella pneumoniae. Briefly: MIC at pH 3.5 (CLSI, Mueller-Hinton broth). As to conditions: 5 isolates. The class given is cell-based. As to the method: as §1
Another experiment concerns Morganella morganii. Put plainly: MIC at pH 3.5 (CLSI, Mueller-Hinton broth). In kind it is cell-based. As to conditions: 5 isolates. On the procedure: as §1
Experiment [1] deals with Proteus mirabilis/vulgaris. Put plainly: MIC at pH 3.5 (CLSI, Mueller-Hinton broth). In kind it is cell-based. The conditions noted are these: 5 isolates. As to the method: as §1
A further experiment concerns Providencia species. Put plainly: MIC at pH 3.5 (CLSI, Mueller-Hinton broth). In kind it is cell-based. The conditions noted are these: 5 isolates. As to the method: as §1
The next experiment deals with Pseudomonas aeruginosa. Briefly: MIC at pH 3.5 (CLSI, Mueller-Hinton broth). The class given is cell-based. The conditions noted are these: 20 isolates. As to the method:
as §1

A further experiment relates to Serratia marcescens. Briefly: MIC at pH 3.5 (CLSI, Mueller-Hinton broth). The class given is cell-based. As to conditions: 5 isolates. On the procedure:
as §1

The test system of experiment [2] is Staphylococcus aureus (MRSA). Put plainly: MIC at pH 3.5 (CLSI, Mueller-Hinton broth). In kind it is cell-based. The conditions noted are these: 20 isolates. On the procedure: as §1
The test system of experiment [3] is Escherichia coli (strain CFT073, TPPS 1041). Briefly: Urinary tract infection model in BALB/c mice, initial efficacy (Example 10). In kind it is in vivo. As to conditions: 1025 mg/kg pH 3.5 transurethral at 24 hr. The source says:
Female BALB/c mice (20-22 g) ordered from Envigo are acclimated to housing conditions and handled in accordance with Animal Use Protocol (AUP) number TP-08. Animals are fed irradiated Teklad Global 29 18 Rodent Diet and water ad libitum. Mice are housed 6/cage in static cages with irradiated ⅛″ Teklad corn cobbedding 7902 inside bioBubble® clean rooms that provide H.E.P.A filtered air into the bubble environment at 100 complete air changes per hour. The environment is controlled to a temperature range of 74°±4° F. and a humidity range of 30-70%. All procedures carried out in this experiment are conducted in compliance with the laws, regulations, and guidelines of the National Institutes of Health and with the approval of the TransPharm Preclinical Solutions Animal Care and Use Committee.
A clinical isolate of Escherichia coli (strain CFT073, TPPS 1041) are procured from the University of Michigan.
The organism is grown overnight at 37° C. in ambient atmosphere on trypticase soy agar plates supplemented with 5% sheep blood cells. The culture is aseptically swabbed and transferred to tubes of trypticase soy broth. The optical density is determined at 600 nm. The culture is diluted to provide an inoculum of approximately 7.5 log10 CFU per mouse in a volume of 30 μL. Instillation of the bacterial challenge constituted time 0 hour for the study. Inoculum counts are estimated before inoculation by optical density and confirmed after inoculation by dilution and back counts.
One hour prior to bacterial challenge, water is removed from animal cages. […]
The primary endpoint used to assess progress of the infection is mean bacterial burden per gram of urinary bladder tissue. […] Colony forming units (CFU) are enumerated and the total bacterial burden per gram of urinary bladder tissue homogenate is calculated.
The geometric mean CFU, along with standard error of the mean (SEM), are calculated using Microsoft Excel and bar charts are prepared for the data using GraphPad Prism v. […]

Broadly, the MIC is the smallest concentration in the dilution series that meets the test's criterion for growth inhibition. As a reminder, the MIC50 is the lowest concentration that inhibits either 50% of growth or 50% of the strains tested, depending on the study. A lower MIC50 goes with higher susceptibility. The term MIC90 denotes an inhibitory concentration at the 90% level, which refers to growth in some studies and to a panel of isolates in others. Read a low MIC90 as greater potency. Take `CCCCOP(=O)(O)OC[C@H]1O[C@@H](n2ccc(N)nc2=O)C[C@@H]1OP(=O)(O)OCCCC` [Nu-8, sodium ((2R,3S,5R)-5-(4-amino-2-oxopyrimidin-1(2H)-yl)-3-((butoxyoxidophosphor-yl)oxy)tetrahydrofuran-2-yl)methyl butyl phosphate]: the MIC in the experiment on P. aeruginosa (pH 1) was 9.38 mg/mL; against P. aeruginosa (pH 3), 18.8 mg/mL; in the experiment on P. aeruginosa (pH 4), 37.5 mg/mL; against P. aeruginosa (pH 5), 75 mg/mL; with P. aeruginosa (pH 7) it was more than 75 mg/mL; with Citrobacter species, 18.8 to 37.5 mg/mL. In addition, the MIC is 4.69 to 18.8 mg/mL against Enterococcus faecalis; 37.5 mg/mL with Escherichia coli; 37.5 to 75 mg/mL with Klebsiella pneumoniae; 18.8 mg/mL with Morganella morganii; 4.69 to 18.8 mg/mL in experiment [1]; 9.38 to 37.5 mg/mL against Providencia species. Also, the MIC is 9.38 to 18.8 mg/mL in the experiment with Pseudomonas aeruginosa, 37.5 to 75 mg/mL in the experiment with Serratia marcescens and 9.38 to 37.5 mg/mL in [2]. For the same compound, the MIC50 (against Pseudomonas aeruginosa; in experiment [2]) was 18.8 mg/mL each time. Also, the MIC90 with Pseudomonas aeruginosa amounted to 18.8 mg/mL; in [2] it was 37.5 mg/mL. Also, the “mean bladder CFU burden” value is on record as 2.9 log10 CFU in experiment [3] (20 minutes post-treatment) and 3.7 log10 CFU in [3] (60 minutes post-treatment).
